Test results reported in patent US20240024266A1, “Therapeutic Agent or Prophylactic Agent for COVID-19” (priority 2020, published 2024).
Where two headings read alike, the source gives them in different places.

Experiments:
[1] = test system: SARS-CoV-2; test: Suppressing effect against SARS-CoV-2 proliferation at 5 or 10 μM (nucleocapsid Western blotting); assay type: cell-based; details: 5 μM, MOI 10, cell lysate 8 hours after infection
[2] = test system: SARS-CoV-2; test: Confirmation test of suppressing effect against SARS-CoV-2 proliferation (nucleocapsid Western blotting, VeroE6/TMPRSS2 cells); assay type: cell-based; details: 20 μM Pin1 inhibitor, VeroE6/TMPRSS2 cells, MOI 10, cell lysate 8 hours after infection, nucleocapsid band area vs no inhibitor; for inhibition at 20 µM: Severe acute respiratory syndrome coronavirus 2, VeroE6/TMPRSS2, 8 h, read-out: Inhibition Rate
[3] = test system: feline coronavirus (FCoV); details: cited from earlier work
[4] = test system: SARS-CoV-2; test: Inhibitory effect of ATRA on SARS-CoV-2 proliferation (nucleocapsid Western blotting and real-time PCR); assay type: cell-based; details: MOI 0.01, 24 hours
Procedure: In this Example, the inhibitory effect of SARS-CoV-2 proliferation by ATRA, a therapeutic agent for promyelocytic leukemia known to have inhibitory activity against Pin1. ATRA was added to VeroE6/TMPRSS2 cells to the final concentrations of 0, 0.5, 1, 5, 10, 20, and 30 μM, to which SARS-CoV-2 was infected at multiplicity of infection (MOI) of 0.01 after 2 hours, followed by recovering cell lysate after 24 hours and then detecting SARS-CoV-2 nucleocapsid, Pin1 and actin as an internal standard in the cells by Western blotting. SARS-CoV-2 proliferation was evaluated on the basis of the expression level of SARS-CoV-2 nucleocapsid in the cells.

[5] = test system: SARS-CoV-2; assay type: cell-based; details: MOI 0.01, 24 hours after infection, real-time PCR
[6] = test system: SARS-CoV-2; assay type: cell-based; details: MOI 0.01 to 0.02, 24 hours

Row | SMILES | inhibition at 20 µM [2] [%] | also measured
1 | O=C(Cn1c2ccccc2c2ccccc21)Nc1ccc(OCc2ccc3ccccc3c2)cc1C(=O)O [H-537] | 96 | inhibition rate of SARS-CoV-2 nucleocapsid (Western blotting) [1]: high inhibition rate
2 | O=C(O)c1cc(NC(=O)c2ccc3ccccc3n2)cc(NC(=O)n2c3ccccc3c3ccccc32)c1 [H-688] | 98 | inhibition rate of SARS-CoV-2 nucleocapsid (Western blotting) [1]: high inhibition rate
3 | S=C(SC(=S)N1CCCCC1)N1CCCCC1 [dipentamethylenethiuram monosulfide] |  | replication of feline coronavirus (FCoV) [3]: inhibited
4 | CC1=C(/C=C/C(C)=C/C=C/C(C)=C/C(=O)O)C(C)(C)CCC1 [ATRA] |  | proliferation of SARS-CoV-2 ([4]; 5 μM or more): suppressed; proliferation of SARS-CoV-2 ([4]; 10 μM or more): substantially suppressed
5 | O=C(Nc1ccc(OCc2ccccc2)cc1C(=O)O)c1ccc2ccccc2c1 [H-77] |  | inhibition rate of SARS-CoV-2 nucleocapsid (Western blotting) [1]: high inhibition rate; proliferation of SARS-CoV-2 (SARS-CoV-2 RNA level in supernatant) ([5]; 5 μM): suppressed; proliferation of SARS-CoV-2 (SARS-CoV-2 RNA level in supernatant) ([5]; 7.5 μM): substantially suppressed; Inhibition Rate [2]: 96%; SARS-CoV-2 proliferation ([6]; 10 μM added 2 hours before the infection): suppressed; SARS-CoV-2 detection ([6]; 10 μM added 6 hours after the infection): slightly detected; SARS-CoV-2 proliferation ([6]; 10 μM added after the infection (2 hours, 6 hours)): suppressed; SARS-CoV-2 proliferation ([6]; 10 μM added at the time of the infection): suppressed
6 | COC(=O)[C@@H](Cc1ccc2ccccc2c1)NC(=O)n1c2ccccc2c2ccccc21 [H-393] | 80 | 
7 | O=C(NCCC[C@H](NC(=O)C1c2ccccc2-c2ccccc21)C(=O)O)c1cccnc1 [H-715] | 63 | 
8 | O=C(Nc1ccc(OCc2ccc3ccccc3c2)cc1C(=O)O)c1ccc2c(c1)OCCO2 [H-787] | 97 | 
9 | O=C(CC(Cc1ccc2c(c1)OCO2)C(=O)O)Nc1cccc2ccccc12 (centres unmarked) [H-674] | 50 | 
10 | O=C(O)c1cc(OCc2ccc3ccccc3c2)ccc1OCc1ccc2ccccc2c1 [H-488] | 100 | 
11 | COc1ccc(-c2cc(C(=O)O[C@H](Cc3ccc4ccccc4c3)C(=O)O)c(C)o2)cc1 [H-32] | 86 | 
12 | O=C(CN(c1ccccc1)c1ccccc1)Nc1cc(NC(=O)c2ccc3ccccc3c2)cc(C(=O)O)c1 [H-819] | 95 | 
13 | O=C(Cn1c2ccccc2c2ccccc21)N[C@H](Cc1ccc2ccccc2c1)C(=O)O [H-536] | 75 | 
14 | O=C(O)c1ccc(OCc2ccc3ccccc3c2)cc1OCc1ccc2ccccc2c1 [H-489] | 99 | 
15 | O=C(O[C@H](Cc1ccc2ccccc2c1)C(=O)O)c1cccc(Oc2ccccc2)c1 [H-130] | 100 | 
16 | COC(=O)c1cc(NC(=O)c2ccc3ccccc3c2)c[n+](Cc2ccc3ccccc3c2)c1 [H-626] | 88 | 
17 | O=C(Nc1ccc(OCc2ccc3ccccc3c2)cc1C(=O)O)c1ccc2ccccc2c1 [H-371] |  | Inhibition Rate [2]: 99%
18 | O=C(CC1c2ccccc2-c2ccccc21)O[C@H](Cc1ccc2ccccc2c1)C(=O)O [H-106] | 100 | 
19 | Nc1cc(NC(=O)CN(c2ccccc2)c2ccccc2)cc(C(=O)O)c1 [H-817] | 61 | 
20 | O=C(O)c1cc(NC(=O)c2ccc3c(c2)OCCO3)cc(NC(=O)n2ccc3ccccc32)c1 [H-876] | 69 | 
21 | COC(=O)c1cc(NC(=O)c2cccnc2)cc(NC(=O)n2c3ccccc3c3ccccc32)c1 [H-680] | 53 | 
22 | CC(C)(C)OC(=O)NCc1ccc(C(=O)N[C@H](Cc2ccc3ccccc3c2)C(=O)O)cc1 [H-849] | 50 | 
23 | O=C(O)c1cc(NC(=O)c2ccc3ccccc3c2)cc(NC(=O)n2ccc3ccccc32)c1 [H-878] | 56 | 
24 | O=C(O)[C@@H](Cc1ccc2ccccc2c1)NC(=O)n1c2ccccc2c2ccccc21 [H-853] | 99 | 
25 | O=C(O[C@H](Cc1ccc2ccccc2c1)C(=O)O)C1c2ccccc2-c2ccc(Cl)cc21 (some centres unmarked) [H-263] | 54 | 
26 | O=C(Nc1ccc(OCc2ccc3ccccc3c2)c(C(=O)O)c1)c1ccc2ccccc2c1 [H-448] | 100 | 
27 | O=C(COc1ccccn1)Nc1cc(NC(=O)n2c3ccccc3c3ccccc32)cc(C(=O)O)c1 [H-763] | 97 | 
28 | O=C(O)CCC(Cc1ccc2ccccc2c1)OC(=O)c1ccc2ccccc2c1 (centres unmarked) [H-507] | 99 | 
